# Counter-ions that a name gives are not always drawn.
# Experiments:
# [1] = test system: IE2 negative feedback (MIEP-IE2-IRES-GFP construct, LM2ig); test: IE2 negative feedback reporter: cells harboring LM2ig (MIEP-IE2-IRES-GFP), GFP by flow cytometry; assay type: cell-based, human CMV (hCMV); details: for increase in the number of GFP-positive cells: Hoechst 33342 0.25 μM, VPA concentrations as in Teng et al. (2012), cells harboring LM2ig, FIG. 6; for quiescent MIEP-driven expression in a reporter cell line: 20 μM Hoechst 33258, FACS, FIG. 4 upper panel; for production of IE2, as measured by GFP expression (GFP mean fluorescence intensity; GFP-MFI): ARPE-19 cells stably transduced with LM2ig, FIG. 1, FIG. 2
# Protocol: (§1) MRCS fibroblasts and life-extended human foreskin fibroblasts (HFFs) (Bresnahan and Shenk, 2000) were maintained in Dulbecco's Modified Eagle's Medium (DMEM) supplemented with 10% fetal bovine serum (FBS) and 50 U/ml penicillin-streptomycin at 37° C. and 5% CO2 in a humidified incubator. ARPE-19 cells were maintained in a 1:1 mixture of DMEM/F-12 (Mediatech Inc.) with 10% FBS (HyClone) and 50 U/ml Penicillin-Streptomycin (Mediatech Inc.). Cells were treated with a final concentration of 1 mM valproic acid (VPA) (Calbiochem™), resuspended in dimethylsulfoxide, for approximately 24 hours before imaging. Cells were treated with a final concentration of 400 nM TSA (Sigma-Aldrich) resuspended in dimethylsulfoxide, for 20-24 hours, a final concentration of 10 ng/mL TNF-α (Sigma-Aldrich) resuspended in phosphate-buffered saline (PBS), or a final concentration of 1 mM VPA (Calbiochem) for approximately 24 hours before imaging.
# (§2) Standard lentiviral cloning was used to create minimal major immediate early (MIE) circuits (Dull et al., 1998). The minimal MIEP-IE2-GFP and MIEP-GFP circuits are driven by a full-length ˜2.5 kb MIE promoter-enhancer (MIEP) that spans the sequence from the MIEP modulator at the 5′ edge to the junction of immediate early (IE) exons 1 and 2. The MIEP was polymerase chain reaction (PCR)-cloned from AD169 into pLEIGW in place of the EF1a promoter. This full-length MIEP drives an IE2-IRES-GFP or mCherry-IRES-GFP cassette. IE2 was cloned from pRSV-IE86 (a gift from Jay Nelson). ARPE-19 cells were infected and fluorescence-activated cell sorter (FACS) sorted for green fluorescent protein (GFP) fluorescence to create stably expressing cell lines. Cells were treated with Trichostatin-A (TSA) for 17 hours, and GFP expression was quantified by flow cytometry. Live cells were gated by forward-versus-side scattering on a FacsCalibur™ cytometer (BD Biosciences) and mean fluorescence intensity recorded. At least 20,000 live cells were recorded for each experiment and data was analyzed in FlowJo™ (Treestar Inc.).
# See WO 2014/127148 for descriptions of MIEP-IE2-reporter constructs. For example, LM2ig construct is depicted in FIG. 7 of WO 2014/127148.
# [2] = test system: IE2 negative feedback (LM2ig "low" cells); test: LM2ig "low" drug screen (4 day induction, high throughput flow cytometry); assay type: cell-based, human CMV (hCMV); details: induction period of 4 days, FIG. 9
# Protocol: LM2ig “low” cells (˜0% GFP positive before induction) were treated with agents in duplicate for an induction period of 4 days. During this induction period, the cell culture medium was not changed; images were taken every day for 4 days. On the final day, high throughput flow cytometry was carried out on FACS IntelliCyt. Agents tested were: Hoechst 33258, Hoechst 33342, VPA, TSA, TNF-α, hexamethylene bisacetamide (HMBA), phorbol myristate acetate (PMA), neotroposin, distamycin, DAPI, gemcitabine, prednisolone, suberanilohydroxamic acid (SAHA), (2E)-N-hydroxy-3-[4-({[2-(2-methyl-1H-indol-3-yl)ethyl]amino}methyl)phenyl]acrylamide (panobinostat), thapsigargin, JQ1, prostratin, dimizane acetate, pentamidine, or bendamustine.
# [3] = test system: ARPE-19 cells stably transduced with LM2ig; test: Viability of ARPE-19 cells stably transduced with LM2ig; assay type: cell-based; details: FIG. 1, FIG. 2
# Protocol: as §1, §2
# [4] = test system: latent CMV in N-Tera2 cells; test: N-Tera2 latency assay (reactivation of latent CMV); assay type: cell-based, human CMV (hCMV); details: FIG. 4 lower panel
# Protocol: Reactivation of latent CMV in N-Tera2 cells was conducted as previously described in (Meier, 2001).
SMILES,"percent GFP-positive cells ([1]; 0.25 μM Hoechst 33342, 24 hours, cells with LM2ig construct, FIG. 5)",breaking of the IE2 negative feedback circuit ([1]; 24-28 hour exposure),reactivation of the LM2ig minimal circuit ([1]; Hoechst 33258: after 24 hours),increase in the number of GFP-positive cells [1],"breaking of the minimal LM2ig circuit ([1]; after 24 hours, alone)","breaking of the circuit and reactivation of the promoter from an off (silenced) state ([1]; long-term (e.g., 8-10 days) exposure)",breaking of the IE2 negative feedback (geometric mean of GFP) [2],quiescent MIEP-driven expression in a reporter cell line ([1]; ARPE-19 cells harboring LM2ig),"production of IE2, as measured by GFP expression (GFP mean fluorescence intensity; GFP-MFI) [1]",cell viability / cytotoxicity [3],reactivation of latent CMV [4],"number of GFP-positive cells ([1]; ARPE-19 cells harboring LM2ig, Hoechst 33258 with or without VPA, FIG. 7)","mean fluorescence intensity (MFI) ([1]; ARPE-19 cells harboring LM2ig, Hoechst 33258 with or without VPA, FIG. 8)"
"CCOc1ccc(-c2nc3ccc(-c4nc5ccc(N6CCN(C)CC6)cc5[nH]4)cc3[nH]2)cc1 [Hoechst 33342, 2′-[4-ethoxyphenyl]-5-[4-methyl-1-piperazinyl]-2,5′-bi-1H-benzimidazole trihydrochloride trihydrate]",increased,breaks the IE2 negative feedback circuit,strongly reactivates,3.49 fold,does not break,breaks the circuit and reactivates the promoter,specifically break the IE2 negative feedback,–,–,–,–,–,–
"CC(/C=C/C(=O)NO)=C\[C@@H](C)C(=O)c1ccc(N(C)C)cc1 [TSA, (R,2E,4E)-7-(4-(dimethylamino)phenyl)-N-hydroxy-4,6-dimethyl-7-oxohepta-2,4-dienamide, reference compound]",–,–,–,–,–,–,–,not,increased IE2 expression,not cytotoxic,not,–,–
"CCCC(CCC)C(=O)O [VPA, valproic acid, reference compound]",–,–,–,1.69 fold,–,–,–,not,increased IE2 expression,not cytotoxic,not,induced an increase,did not substantially increase MFI

# From patent publication US10478431B2, “Methods for treating a cytomegalovirus infection” (priority 2014, dated 2019)
